The subject of assay [1] is DSS-induced colitis in mice. Kind of assay: DSS-induced colitis, therapeutic effect of GMTX. In kind it is in vivo, mouse. As to conditions: 5 mg/kg oral on day 3, 5 and 6 of DSS. How it is done: Colitis was induced in mice by addition of 2% (wt/vol) DSS (MW 36-50 KD molecular weight, MP Biomedicals, OH) in their drinking water for the duration of the study. DSS solution was freshly prepared every other day. Body weight and physical activity were monitored daily. To test the protective effect of GDNs, mice fasted for 4 h were orally given either PBS or 10 mg/kg of GDNs daily for 7 days and then treated with 2% DSS in drinking water for 7 days to induce colitis with continued administration of GDNs. To test the therapeutic effect of GMTX, colitis was first induced in mice by providing 2% DSS in their drinking water. On day 3, 5 and 6 of DSS-induced colitis, mice were treated with free MTX (5 mg/kg body weight) or GMTX (MTX equaled to 5 mg/kg) by oral administration. […]
For histopathology, tissues were fixed in 10% neutral formalin and then embedded in paraffin. […] Histological examination was performed in a blinded fashion and the severity of colitis was scored as described previously. […] E-cadherin and F4/80 binding was detected by Alexa Fluor 488 conjugated goat anti-mouse IgG or goat anti-rat IgG (1:600, Invitrogen), respectively. […]
To assess the local levels of IL-6, IL-1β, TNF-α, organ cultures were generated from naïve, GDN, PBS/DSS and GDN/DSS challenged mice. […] The local levels of PGE2 were determined by a PGE2-specific EIA (Cayman Chemical, Ann Arbor, Mich.) as described previously. […]

Assay [2] concerns Raw264.7 macrophages. Kind of assay: Internalization assay (GDN uptake with endocytosis inhibitors). The class given is cell-based, mouse. As to conditions: 30 min pretreatment: 50 μM amiloride, 12.5 μM chlorpromazine or 100 μM indomethacin; 2 μg/ml PKH26-labeled GDNs, 3 h.
Protocol: Macrophages were plated on Lab-Tek chamber slide (Sigma) and incubated for 24 h in growth medium. Before the uptake assay, GDNs were labeled with PKH26, sucrose gradient purified and diluted in PBS. Uptake was performed by incubating cell cultures with 2 μg/ml of GDNs for 3 h in a humid chamber (37° C., 5% CO2). For inhibition experiments, cell cultures were pre-incubated with individual inhibitors for 30 min before performing the uptake experiments.

SMILES strings stand for the structures.

This note sets out measurements from US9717733B2, “Edible plant-derived microvesicle compositions including conjugated therapeutic agents and methods for using the same” (priority 2014, dated 2017).

In the case of `CN(Cc1cnc2nc(N)nc(N)c2n1)c1ccc(C(=O)N[C@@H](CCC(=O)O)C(=O)O)cc1` [free MTX, methotrexate], the “symptoms of colitis vs PBS treated mice (colon tissue damage, colon length reduction, E-cadherin expression)” value in assay [1] was “aggravated symptoms of colitis”. On to `COc1ccc2c(c1)c(CC(=O)O)c(C)n2C(=O)c1ccc(Cl)cc1` [indomethacin], for which, in assay [2], the “inhibition of GDN uptake” value is “did not significantly alter”.
